Counter-ions that a name gives are not always drawn.
melting point [°C] | SMILES
75 | CN1CC=C(c2cn(S(=O)(=O)C3CCCCC3)c3ccc(N)cc23)CC1 [Example 3, 5-Amino-1-cyclohexanesulfonyl-3-(1-methyl-1,2,3,6-tetrahydropyridine-4-yl)-1H-indole]
263 | O=S(=O)(C1CCCCC1)n1cc(C2=CCN3CCCC3C2)c2cc(F)ccc21 (stereo not shown) (as salt: hydrochloride) [Example 4, 1-Cyclohexanesulfonyl-5-fluoro-3-(1,2,3,5,8,8a-hexahydro-indolizine-7-yl)-1H-indole hydrochloride]
155 to 160 | CN1CC=C(c2cn(S(=O)(=O)C3CCCCC3)c3ccc([N+](=O)[O-])cc23)CC1 [Example 1, 1-Cyclohexanesulfonyl-3-(1-methyl-1,2,3,6-tetrahydropyridine-4-yl)-5-nitro-1H-indole]
88 to 90 | CN1CC=C(c2cn(S(=O)(=O)C3CCCCC3)c3ccc(Cl)cc23)CC1 [Example 2, 5-Chloro-1-cyclohexanesulfonyl-3-(1-methyl-1,2,3,6-tetrahydropyridine-4-yl)-1H-indole]

From US7655690B2, “1-sulfonylindole derivatives, their preparation and their use as 5-HT6 ligands” (Laboratorios del Dr. Esteve S.A., priority 2004, dated 2010)
